Values quoted from earlier work, collected in US20090246278A1, “USE OF ESSENTIAL OILS TO REDUCE BENZODIAZEPINE REQUIREMENTS DURING MEDICAL PROCEDURES” (priority 2008, published 2009).

Test system: GABA receptors
Details: effects antagonized by flumazenil

## CC1=CCC2CC1C2(C)C (stereo not drawn) [α-pinene, alpha-pinene]
  GABA-ergic properties: exert GABA-ergic properties

## C=C1CCC2CC1C2(C)C (stereo not drawn) [β-pinene, beta-pinene]
  GABA-ergic properties: exert GABA-ergic properties
